In patent publication US12084420B2, “Indoline compounds for inhibiting KIF18A” (Volastra Therapeutics, Inc., priority 2021, dated 2024):
pIC50: −log10 of the molar value.

Biological target: hKIF18A (1-374) (Homo sapiens (Human), UniProt Q8NI77)
Test: Inhibition of KIF18A microtubule-dependent ATPase activity (ADP-Glo)
Settings: KIF18A microtubule-dependent ATPase activity, biochemical assay

hKIF18A (1-374), sequence (Q8NI77 whole entry, looked up): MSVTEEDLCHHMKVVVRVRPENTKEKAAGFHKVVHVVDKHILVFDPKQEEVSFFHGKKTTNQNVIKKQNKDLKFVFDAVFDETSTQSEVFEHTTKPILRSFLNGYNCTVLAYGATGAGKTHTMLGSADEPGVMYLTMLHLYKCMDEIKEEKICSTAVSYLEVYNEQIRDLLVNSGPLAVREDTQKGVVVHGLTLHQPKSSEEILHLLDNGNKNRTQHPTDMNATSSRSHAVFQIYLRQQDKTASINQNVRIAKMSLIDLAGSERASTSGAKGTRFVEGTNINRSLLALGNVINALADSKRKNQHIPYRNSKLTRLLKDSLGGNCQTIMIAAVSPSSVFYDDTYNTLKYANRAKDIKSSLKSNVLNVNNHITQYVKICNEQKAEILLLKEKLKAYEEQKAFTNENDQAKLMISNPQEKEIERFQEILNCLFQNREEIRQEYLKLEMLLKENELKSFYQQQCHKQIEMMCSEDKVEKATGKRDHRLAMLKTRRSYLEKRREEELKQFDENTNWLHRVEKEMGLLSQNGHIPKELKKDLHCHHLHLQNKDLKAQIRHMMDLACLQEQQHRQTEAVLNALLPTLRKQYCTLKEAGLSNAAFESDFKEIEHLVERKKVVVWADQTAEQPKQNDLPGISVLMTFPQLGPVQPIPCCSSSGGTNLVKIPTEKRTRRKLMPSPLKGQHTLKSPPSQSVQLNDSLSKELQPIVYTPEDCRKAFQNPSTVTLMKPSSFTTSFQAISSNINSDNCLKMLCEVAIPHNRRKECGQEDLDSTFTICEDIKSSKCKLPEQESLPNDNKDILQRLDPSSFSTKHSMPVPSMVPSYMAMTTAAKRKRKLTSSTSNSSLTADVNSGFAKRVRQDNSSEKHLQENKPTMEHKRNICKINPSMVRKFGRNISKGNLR
hKIF18A (1-374), sequence (Q2XVP4 whole entry partner, looked up): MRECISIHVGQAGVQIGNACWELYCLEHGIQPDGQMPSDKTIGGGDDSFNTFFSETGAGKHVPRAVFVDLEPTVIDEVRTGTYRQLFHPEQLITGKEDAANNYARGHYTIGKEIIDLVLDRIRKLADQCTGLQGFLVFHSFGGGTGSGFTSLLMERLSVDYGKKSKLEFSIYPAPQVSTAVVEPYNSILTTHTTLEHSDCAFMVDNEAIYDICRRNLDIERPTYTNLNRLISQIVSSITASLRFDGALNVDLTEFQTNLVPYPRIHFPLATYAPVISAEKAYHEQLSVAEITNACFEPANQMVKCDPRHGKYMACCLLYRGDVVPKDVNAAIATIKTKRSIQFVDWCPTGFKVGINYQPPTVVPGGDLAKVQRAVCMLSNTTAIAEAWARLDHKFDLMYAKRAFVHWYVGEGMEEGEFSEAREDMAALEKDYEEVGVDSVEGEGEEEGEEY
hKIF18A (1-374), sequence (P02554 whole entry partner, looked up): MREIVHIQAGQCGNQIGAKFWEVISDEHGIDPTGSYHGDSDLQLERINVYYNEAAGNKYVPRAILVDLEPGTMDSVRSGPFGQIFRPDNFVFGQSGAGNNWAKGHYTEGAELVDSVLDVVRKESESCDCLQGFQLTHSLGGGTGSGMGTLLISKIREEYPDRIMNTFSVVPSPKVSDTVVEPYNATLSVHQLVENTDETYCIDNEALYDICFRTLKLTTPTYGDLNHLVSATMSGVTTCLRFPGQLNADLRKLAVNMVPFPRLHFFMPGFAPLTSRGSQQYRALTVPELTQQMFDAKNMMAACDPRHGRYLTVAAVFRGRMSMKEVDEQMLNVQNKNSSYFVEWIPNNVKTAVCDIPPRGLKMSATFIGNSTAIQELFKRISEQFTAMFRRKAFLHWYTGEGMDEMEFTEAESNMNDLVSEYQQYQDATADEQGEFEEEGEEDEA

Row | Structure (SMILES) | pIC50
1 | CCS(=O)(=O)Nc1ccc2c(c1)C1(CCC3(CC3)CC1)CN2C(=O)c1ccc(F)c(S(=O)(=O)NC(C)(C)C)c1 [Compound 340, N-(tert-butyl)-5-(5″- (ethylsulfonamido)dispiro[cyclopropane-1,1′-cyclohexane-4′,3″-indoline]-1″- carbonyl)-2-fluorobenzenesulfonamide] | 7.74
2 | CC(C)(C)NS(=O)(=O)c1cccc(C(=O)N2CC3(CCC4(CC4)CC3)c3cc(Br)ccc32)c1 [Compound 9, 3-(5″-bromodispiro[cyclopropane-1,1′-cyclohexane-4′,3″-indoline]-1″- carbonyl)-N-(tert-butyl)benzenesulfonamide] | 6.00
3 | CC(O)(c1cccc(C(=O)N2CC3(CCC4(CC4)CC3)c3cc(NS(C)(=O)=O)ccc32)c1)C1CCCC1 (stereo not drawn) [Compound 331, N-(1″-(3-(1-cyclopentyl-1-hydroxyethyl)benzoyl)dispiro[cyclopropane-1,1′-cyclohexane-4′,3″-indolin]-5″-yl)methanesulfonamide] | 7.46
4 | CS(=O)(=O)Nc1ccc2c(c1)C1(CCC3(CC3)CC1)CN2C(=O)c1cccc(S(=O)(=O)N2CC[C@H](F)C2)c1 [(S)-Compound 239, (S)-N-(1″-(3-((3-fluoropyrrolidin-1-yl)sulfonyl)benzoyl)dispiro[cyclopropane-1,1′-cyclohexane-4′,3″-indolin]-5″- yl)methanesulfonamide] | 7.82
5 | CS(=O)(=O)Nc1ccc2c(c1)C1(CCC3(CC3)CC1)CN2C(=O)c1cccc(S(=O)(=O)NC2(C#N)CC2)c1 [Compound 264, N-(1-cyanocyclopropyl)-3-(5″- (methylsulfonamido)dispiro[cyclopropane-1,1′-cyclohexane-4′,3″-indoline]-1″-carbonyl)benzenesulfonamide] | 7.46
6 | Cc1oc(C(=O)N2CC3(CCCCC3)c3cc(NS(C)(=O)=O)ccc32)cc1S(=O)(=O)NC(C)(C)C [Compound 57, N-(tert-butyl)-2-methyl-5-(5′-(methylsulfonamido)spiro[cyclohexane-1,3′-indoline]-1′-carbonyl)furan-3-sulfonamide] | 5.96
7 | CS(=O)(=O)Nc1ccc2c(c1)C1(CCCCC1)CN2C(=O)c1cccc(S(=O)(=O)N2CCC(F)C2)c1 (stereo not drawn) [Compound 83, N-(1′-(3-((3-fluoropyrrolidin-1-yl)sulfonyl)benzoyl)spiro[cyclohexane-1,3′-indoline]-5′-yl)methanesulfonamide] | 6.89
8 | CS(=O)(=O)Nc1ccc2c(c1)C1(CCC3(CC3)CC1)CN2C(=O)c1csc(S(=O)(=O)N2CCC(F)(F)CC2)c1 [Compound 281, N-(1″-(5-((4,4-difluoropiperidin-1-yl)sulfonyl)thiophene-3-carbonyl)dispiro[cyclopropane-1,1′-cyclohexane-4′,3″-indolin]-5″- yl)methanesulfonamide] | 7.89
9 | Cn1cc(S(=O)(=O)NC(C)(C)C)cc1C(=O)N1CC2(CCCCC2)c2cc(NS(C)(=O)=O)ccc21 [Compound 145, N-(tert-butyl)-1-methyl-5-(5′-(methylsulfonamido)spiro[cyclohexane-1,3′-indoline]-1′-carbonyl)-1H-pyrrole-3-sulfonamide] | 6.54
10 | CS(=O)(=O)Nc1ccc2c(c1)[C@]1(CC[C@@H](C(F)F)CC1)CN2C(=O)c1cccc(S(=O)(=O)NC23CC(C2)C3)c1 [Compound 336a] | 8.07
11 | COCC(C)NS(=O)(=O)c1cccc(C(=O)N2CC3(CCC4(CC4)CC3)c3cc(NS(C)(=O)=O)ccc32)c1 (stereo not drawn) [Compound 200, N-(1-methoxypropan-2-yl)-3-(5″- (methylsulfonamido)dispiro[cyclopropane-1,1′-cyclohexane-4′,3″-indoline]-1″-carbonyl)benzenesulfonamide] | 7.14
12 | C=C1CC(NS(=O)(=O)c2cccc(C(=O)N3CC4(CCC5(CC5)CC4)c4cc(NS(C)(=O)=O)ccc43)c2)C1 [Compound 190, N-(3-methylenecyclobutyl)-3-(5″- (methylsulfonamido)dispiro[cyclopropane-1,1′-cyclohexane-4′,3″-indoline]-1″-carbonyl)benzenesulfonamide] | 8.32
13 | CC(C)(C)CC(O)c1cccc(C(=O)N2CC3(CCC4(CC4)CC3)c3cc(NS(C)(=O)=O)ccc32)c1 (stereo not drawn) [Compound 357, N-(1″-(3-(1-hydroxy-3,3-dimethylbutyl)benzoyl)dispiro[cyclopropane-1,1′-cyclohexane-4′,3″-indolin]-5″-yl)methanesulfonamide] | 7.96
14 | CC(O)c1ccc2c(c1)C1(CCC3(CC3)CC1)CN2C(=O)c1cccc(S(=O)(=O)NC(C)(C)C)c1 (stereo not drawn) [Compound 332, N-(tert-butyl)-3-(5″-(1-hydroxyethyl)dispiro[cyclopropane-1,1′-cyclohexane-4′,3″-indoline]-1″-carbonyl)benzenesulfonamide] | 6.82
15 | CS(=O)(=O)c1ccc2c(c1)C1(CCCCC1)CN2C(=O)c1cccc(S(=O)(=O)N2CCCCC2)c1 [Compound 250, (5′-(methylsulfonyl)spiro[cyclohexane-1,3′-indolin]-1′-yl)(3-(piperidin-1-ylsulfonyl)phenyl)methanone] | 6.17
16 | CS(=O)(=O)Nc1ccc2c(c1)C1(CCC3(CC3)CC1)CN2C(=O)c1cccc(CN2CCC(F)(F)CC2)n1 [Compound 342, N-(1″-(6-((4,4-difluoropiperidin-1-yl)methyl)picolinoyl)dispiro[cyclopropane-1,1′-cyclohexane-4′,3″-indolin]-5″- yl)methanesulfonamide] | 7.70
17 | CP(=O)(CC1CCC1)c1cccc(C(=O)N2CC3(CCC4(CC4)CC3)c3cc(NS(C)(=O)=O)ccc32)c1 (stereo not drawn) [Compound 362] | 7.46

Row | Structure (SMILES) | pIC50
18 | CS(=O)(=O)Nc1ccc2c(c1)C1(CCC3(CC3)CC1)CN2C(=O)c1cccc(C(=O)C2CCCC2)c1 [Compound 164, N-(1″-(3-(cyclopentanecarbonyl)benzoyl)dispiro[cyclopropane-1,1′-cyclohexane-4′,3″- indolin]-5″-yl)methanesulfonamide] | 6.92
19 | CC(NS(=O)(=O)c1cccc(C(=O)N2CC3(CCC4(CC4)CC3)c3cc(NS(C)(=O)=O)ccc32)c1)C1CCC1 (stereo not drawn) [Compound 184, N-(1-cyclobutylethyl)-3-(5″- (methylsulfonamido)dispiro[cyclopropane-1,1′-cyclohexane-4′,3″-indoline]-1″-carbonyl)benzenesulfonamide] | 7.48
20 | CCS(=O)(=O)Nc1ccc2c(c1)C1(CCC3(CC3)CC1)CN2C(=O)c1ccc(C(O)C2CCCC2)o1 (single isomer, unassigned) [Compound 367b] | 8.32
21 | CS(=O)(=O)Nc1ccc2c(c1)C1(CCC3(CC3)CC1)CN2C(=O)c1ccnc([C@H](O)C2CCCC2)c1 (single isomer, unassigned) [Compound 316b] | 7.80
22 | CS(=O)(=O)Nc1ccc2c(c1)C1(CCC3(CC3)CC1)CN2C(=O)c1ccc(O)c(S(=O)(=O)N2CC(F)(F)C2)c1 [Compound 303, N-(1″-(3-((3,3-difluoroazetidin-1-yl)sulfonyl)-4-hydroxybenzoyl)dispiro[cyclopropane-1,1′-cyclohexane-4′,3″-indolin]-5″-yl)methanesulfonamide] | 8.09
23 | CS(=O)(=O)Nc1ccc2c(c1)C1(CCC3(CC3)CC1)CN2C(=O)c1cccc([C@@H](O)C2CC(F)(F)C2)c1 [Compound 351b] | 7.92
24 | CN=S(=O)(c1cccc(C(=O)N2CC3(CCCCC3)c3cc(NS(C)(=O)=O)ccc32)c1)C1CCCC1 (stereo not drawn) [Compound 67, N-(1′-(3-(N-methylcyclopentanesulfonimidoyl)benzoyl)spiro[cyclohexane-1,3′-indolin]-5′-yl)methanesulfonamide] | 6.34
25 | CC(=O)NCCCS(=O)(=O)Nc1ccc2c(c1)C1(CCC3(CC3)CC1)CN2C(=O)c1cccc(S(=O)(=O)NC(C)(C)C)c1 [Compound 292, N-(3-(N-(1″-(3-(N-(tert-butyl)sulfamoyl)benzoyl)dispiro [cyclopropane-1,1′-cyclohexane-4′,3″- indolin]-5″- yl)sulfamoyl)propyl)acetamide] | 7.66
26 | O=C(c1ccc(C(O)C2CCCC2)o1)N1CC2(CCC3(CC3)CC2)c2cc(NS(=O)(=O)CCO)ccc21 (single isomer, unassigned) [Compound 368b] | 8.46
27 | CS(=O)(=O)Nc1ccc2c(c1)C1(CCCCC1)CN2C(=O)c1csc(S(=O)(=O)NC2CCC2)c1 [Compound 284, N-cyclobutyl-4-(5′-(methylsulfonamido)spiro[cyclohexane-1,3′-indoline]-1′-carbonyl)thiophene-2-sulfonamide] | 7.59
28 | CS(=O)(=O)Nc1ccc2c(c1)C1(CCC3(CC3)CC1)CN2C(=O)c1cccc(S(=O)(=O)NC2CCCC2)c1 [Compound 176, N-cyclopentyl-3-(5″- (methylsulfonamido)dispiro[cyclopropane-1,1″-cyclohexane-4′,3″-indoline]-1″-carbonyl)benzenesulfonamide] | 8.25
29 | CN(C1CC(F)(F)C1)S(=O)(=O)c1cccc(C(=O)N2CC3(CCC4(CC4)CC3)c3cc(NS(C)(=O)=O)ccc32)c1 [Compound 356, N-(3,3-difluorocyclobutyl)-N-methyl-3-(5″- (methylsulfonamido)dispiro[cyclopropane-1,1′-cyclohexane-4′,3″-indoline]-1″-carbonyl)benzenesulfonamide] | 7.29
30 | CS(=O)(=O)Nc1ccc2c(c1)C1(CCC3(CC3)CC1)CN2C(=O)c1ccnc([C@@H](O)C2CCCC2)c1 (single isomer, unassigned) [Compound 316a] | 7.68
31 | CC1(C)OCC1NS(=O)(=O)c1cccc(C(=O)N2CC3(CCC4(CC4)CC3)c3cc(NS(C)(=O)=O)ccc32)c1 (stereo not drawn) [Compound 188, N-(2,2-dimethyloxetan-3-yl)-3-(5″- (methylsulfonamido)dispiro[cyclopropane-1,1′-cyclohexane-4′,3″-indoline]-1″-carbonyl)benzenesulfonamide] | 7.12
32 | CC(C)(C)NS(=O)(=O)c1cccc(C(=O)N2C[C@]3(CC[C@@H](C(F)(F)F)CC3)c3cc(NS(C)(=O)=O)ccc32)c1 [Compound 361b] | 7.00
33 | CS(=O)(=O)Nc1ccc2c(c1)C1(CCCCC1)CN2C(=O)c1cccc(S(=O)(=O)N2CCCC2)c1 [Compound 241, N-(1′-(3-(pyrrolidin-1-ylsulfonyl)benzoyl)spiro[cyclohexane-1,3′-indolin]-5′-yl)methanesulfonamide] | 6.74
